Experimental findings from ChEMBL document CHEMBL1201862, “PubChem BioAssay data set” (2004) are described below.

Some test systems named below: 786-0; DMS-114; EKVX; HCC 2998; K562; NCI-H226; NCI-H23; OVCAR-3; OVCAR-8; SF-268; SF-295; SK-MEL-2; SN12C; SNB-75; UACC-257; RXF 393; BT-549; MCF7; MDA-MB-435; MDA-N.
Assay in all cases: NCI anticancer screen, dose series, 48 h

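Dose response: 5 concentrations. Exposure: 48 h. Format: 96-well plates. Endpoint: linear interpolation; highest concentration if not reached. Here, GI50 denotes the concentration required for 50% inhibition of growth.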 The source made the active and inactive calls. Cut-off read from the data, not from the text of the source: active = GI50 up to about 1.1 µM and inactive = higher.

On to `COC12CCC(C(C(=O)c3ccccc3)=C1C(=O)c1ccccc1)C(O)C2` (stereo not given), for which the GI50 with 786-0, with DMS-114, with EKVX, in the assay on HCC 2998, with K562 and in the assay on NCI-H226 was > 100 µM (inactive) in each case. In addition, the GI50 in the assay on NCI-H23, in the assay on OVCAR-3, with OVCAR-8, in the assay on SF-268, with SF-295 and in the assay on SK-MEL-2 was > 100 µM (inactive) throughout. In addition, the GI50 with SN12C, with SNB-75 and in the assay on UACC-257 was > 100 µM (inactive) throughout.

In the case of `CCCCN(CCCC)C(=O)C(=O)CC(=O)c1ccc(Br)cc1`, the GI50 in the assay on 786-0, in the assay on DMS-114, in the assay with EKVX, in the assay on HCC 2998, in the assay on K562 and with NCI-H226 was > 100 µM (inactive) in each case. The GI50 with NCI-H23, with OVCAR-3, in the assay with OVCAR-8, in the assay with SF-268, with SF-295 and in the assay with SK-MEL-2 was > 100 µM (inactive) throughout. The GI50 in the assay on SN12C and in the assay on UACC-257 was > 100 µM (inactive) each time.

For the compound `NNC(=O)CNC(=O)c1ccc(Cl)cc1Cl`, the GI50 in the assay on 786-0 is 39.8 µM (inactive); in the assay on DMS-114, > 100 µM (inactive); with EKVX, > 100 µM (inactive); in the assay on HCC 2998, > 100 µM (inactive); in the assay on K562, > 100 µM (inactive); in the assay on NCI-H226 it was > 100 µM (inactive). The GI50 with NCI-H23, in the assay on OVCAR-3, in the assay with OVCAR-8, in the assay with SF-268, in the assay on SF-295 and in the assay with SN12C was > 100 µM (inactive) each time. Further, the GI50 with SNB-75 and with UACC-257 was > 100 µM (inactive) each time.

Regarding `NC(=O)C(N)=O`, the GI50 with 786-0, with DMS-114, with EKVX, in the assay on HCC 2998, with K562 and in the assay with NCI-H23 was > 100 µM (inactive) throughout. Moreover, the GI50 with OVCAR-3, in the assay with OVCAR-8, in the assay with RXF 393, with SF-268, with SF-295 and in the assay on SK-MEL-2 was > 100 µM (inactive) in each case. In addition, the GI50 with SN12C and with UACC-257 was > 100 µM (inactive) each time.

Consider `C=CCCCCn1c2ccccc2c2c(C)c3c[n+](C)ccc3c(C)c21`, for which the GI50 in the assay on 786-0 was 0.752 µM (active); in the assay on DMS-114 it was 0.118 µM (active); in the assay on K562 it was 0.281 µM (active); with NCI-H226, 0.212 µM (active); with NCI-H23, 0.382 µM (active); in the assay on OVCAR-3, 0.288 µM (active). The GI50 in the assay on OVCAR-8 was 0.197 µM (active); with RXF 393, 0.684 µM (active); in the assay with SF-268, 0.366 µM (active); with SF-295, 0.208 µM (active); in the assay with SK-MEL-2 it was 0.396 µM (active); in the assay on SN12C, 0.234 µM (active). In addition, the GI50 with SNB-75 is 0.713 µM (active); in the assay on UACC-257 it was 0.391 µM (active).

Turning to `Cc1c(C(=O)CSc2nc3ccccc3c(=O)n2-c2ccccc2)c(=O)n(-c2ccccc2)n1C`, the GI50 was 19.9 µM (inactive) with 786-0; > 100 µM (inactive) in the assay with DMS-114; > 100 µM (inactive) with HCC 2998; 23.3 µM (inactive) with NCI-H226; 62.4 µM (inactive) with NCI-H23; 27.6 µM (inactive) in the assay with OVCAR-3. Also, the GI50 with SF-268 is > 100 µM (inactive); with SF-295 it was 28.8 µM (inactive); in the assay on SK-MEL-2, > 100 µM (inactive); in the assay with SN12C it was 97.7 µM (inactive); with SNB-75, 60.8 µM (inactive); with UACC-257, 47.3 µM (inactive).

As for `CCCCSC1CCSc2c1ccc1ccccc21` (stereo not given), the GI50 is > 100 µM (inactive) in the assay with 786-0; > 100 µM (inactive) with DMS-114; 65.9 µM (inactive) with HCC 2998; 44.9 µM (inactive) with K562; > 100 µM (inactive) with NCI-H23; > 100 µM (inactive) with OVCAR-8. The GI50 with RXF 393 is 52.8 µM (inactive); with SF-295 it was > 100 µM (inactive); in the assay on SK-MEL-2, > 100 µM (inactive).

As for `CC(=O)OC1CC2Oc3ccc(C)cc3C(C)(O2)C1=O` (stereo not given), the GI50 in the assay with 786-0, in the assay with DMS-114, in the assay with EKVX, with K562, with NCI-H226 and in the assay on NCI-H23 was > 100 µM (inactive) in each case. Further, the GI50 with OVCAR-3 was > 100 µM (inactive); in the assay with OVCAR-8, > 100 µM (inactive); in the assay with RXF 393 it was > 100 µM (inactive); in the assay with SF-295, > 100 µM (inactive); in the assay on SN12C, > 100 µM (inactive); in the assay with SNB-75, 51.1 µM (inactive). The GI50 in the assay on UACC-257 is > 100 µM (inactive).

`Clc1ccc(C2NN=C3c4ccccc4OCC32)cc1` (stereo not given): the GI50 in the assay with 786-0 was 4.65 µM (inactive); with BT-549, 13.5 µM (inactive); with EKVX, 3.59 µM (inactive); in the assay on HCC 2998, 2.62 µM (inactive); in the assay on K562, 3.39 µM (inactive); with MCF7 it was 3.68 µM (inactive). The GI50 is 2.38 µM (inactive) in the assay with MDA-MB-435; 0.83 µM (active) with MDA-N; 2.92 µM (inactive) in the assay on NCI-H226; 4.39 µM (inactive) in the assay on NCI-H23; 5.16 µM (inactive) in the assay with OVCAR-3; 3.94 µM (inactive) in the assay with OVCAR-8. Further, the GI50 in the assay with RXF 393 was 3.46 µM (inactive); in the assay with SF-268, 5.36 µM (inactive); with SF-295, 2.11 µM (inactive); in the assay with SK-MEL-2, 3.48 µM (inactive); with SN12C it was 5.73 µM (inactive); with SNB-75, 5.53 µM (inactive). In the assay with UACC-257, the GI50 is 9.46 µM (inactive).

Take `O=[N+]([O-])c1ccc2nc(Cl)n[n+]([O-])c2c1`: the GI50 is 8.3 µM (inactive) in the assay with 786-0; 16.2 µM (inactive) with BT-549; 18.5 µM (inactive) with EKVX; 16.3 µM (inactive) with HCC 2998; 1.15 µM (inactive) in the assay on K562; 5.52 µM (inactive) in the assay on MCF7. For the same compound, the GI50 in the assay on MDA-MB-435 is 13.8 µM (inactive); in the assay on MDA-N it was 11.6 µM (inactive); in the assay on NCI-H226 it was 19.6 µM (inactive); in the assay with NCI-H23 it was 15.3 µM (inactive); with OVCAR-3, 7.43 µM (inactive); with OVCAR-8 it was 15.2 µM (inactive). Also, the GI50 with RXF 393 is 15.1 µM (inactive); with SF-268 it was 14.1 µM (inactive); in the assay with SF-295, 22.7 µM (inactive); with SK-MEL-2, 15.2 µM (inactive); in the assay with SN12C it was 16.1 µM (inactive); with SNB-75, 14.4 µM (inactive). Also, the GI50 with UACC-257 was 15.4 µM (inactive).

Take `CC(C)(C)c1cc(OCc2nnc3sc(Cc4ccccc4)nn23)c(Cl)cc1OCc1nnc2sc(Cc3ccccc3)nn12`: the GI50 in the assay with 786-0 is 17.3 µM (inactive); with BT-549, 21.5 µM (inactive); with EKVX, 27.3 µM (inactive); in the assay on HCC 2998, 4.4 µM (inactive); with K562, 14.5 µM (inactive); with MCF7, 17.7 µM (inactive). The GI50 in the assay with MDA-MB-435 is 24.1 µM (inactive); with MDA-N, 24.5 µM (inactive); in the assay with NCI-H226, > 100 µM (inactive); in the assay on NCI-H23, 31.9 µM (inactive); in the assay on OVCAR-3 it was 30.7 µM (inactive); in the assay with OVCAR-8, 17.1 µM (inactive). Besides, the GI50 in the assay with RXF 393 is 18.1 µM (inactive); in the assay on SF-268 it was 44.2 µM (inactive); in the assay on SF-295, 23.3 µM (inactive); in the assay with SK-MEL-2, 37.8 µM (inactive); in the assay on SN12C, 44.6 µM (inactive); in the assay on SNB-75, 15.3 µM (inactive). Further, in the assay with UACC-257, the GI50 was 21.3 µM (inactive).

Consider `Cc1ccc2c(c1)C/C(=C\c1ccccc1C(=O)O)C2=O`, for which the GI50 is > 100 µM (inactive) with 786-0; > 100 µM (inactive) in the assay on BT-549; > 100 µM (inactive) with EKVX; > 100 µM (inactive) with HCC 2998; 98.2 µM (inactive) in the assay with K562; > 100 µM (inactive) in the assay on MCF7. The GI50 in the assay with MDA-MB-435 is > 100 µM (inactive); in the assay on MDA-N it was > 100 µM (inactive); in the assay with NCI-H226, 37 µM (inactive); in the assay with NCI-H23, > 100 µM (inactive); with OVCAR-3, > 100 µM (inactive); with OVCAR-8 it was > 100 µM (inactive). Further, the GI50 with RXF 393, in the assay on SF-268, in the assay with SF-295, in the assay on SK-MEL-2, in the assay on SN12C and in the assay with SNB-75 was > 100 µM (inactive) in each case. Besides, the GI50 in the assay on UACC-257 is > 100 µM (inactive).

In the case of `[O-][S+]1SC(=S)C2C=CC=CC21` (stereo not given), the GI50 in the assay with 786-0 was > 100 µM (inactive); with BT-549, > 100 µM (inactive); in the assay on EKVX it was 57.5 µM (inactive); in the assay on HCC 2998 it was > 100 µM (inactive); with K562, > 100 µM (inactive); in the assay with MCF7, 76.9 µM (inactive). The GI50 with MDA-MB-435 was 80 µM (inactive); with MDA-N it was 40.8 µM (inactive); in the assay on NCI-H226, 59.6 µM (inactive); in the assay with NCI-H23, > 100 µM (inactive); with OVCAR-3, > 100 µM (inactive); in the assay on OVCAR-8, > 100 µM (inactive). For the same compound, the GI50 with RXF 393 is > 100 µM (inactive); in the assay with SF-268, > 100 µM (inactive); in the assay on SF-295, 88.9 µM (inactive); in the assay with SK-MEL-2 it was > 100 µM (inactive); in the assay on SN12C it was > 100 µM (inactive); in the assay on SNB-75, 74 µM (inactive). The GI50 in the assay with UACC-257 was 75.5 µM (inactive).
